Measured values published in patent publication US20080161248A1, “Methods and Compositions for Therapeutic Treatment” (priority 2006, published 2008).

Columns and labels:
[1] = tested on: mouse spleen cells, response to LPS; experiment: In vitro LPS assay on spleen cells; format: cell-based; details: high ([…]10^6 cells/well) and low (8×10^5 cells/well) cell concentration
Text: (§1) Animals: 8-9 weeks-old Lewis and Brown Norway male rats were obtained from Charles River Laboratories. General procedures for animal care and housing was in accordance with the National Research Council (NRC) Guide for the Care and Use of Laboratory Animals (1996) and the Animal Welfare Standards incorporated in 9 CFR Part 3, 1991.
(§2) Spleens were collected for use in in vitro Con A and LPS assays.
FIGS. 10 and 11 show the effect of quercetin and tacrolimus on response of mouse spleen cells to LPS at a high (1.6×10^6 cells/well) and low (8×10^5 cells/well) cell concentration, respectively.

[2] = tested on: LEW responders activated with Con A (lymphocyte proliferation); experiment: Con A stimulated proliferation of spleen cells of treated Lewis rats; format: cell-based, rat; details: LNS 0694 i.p. 30 minutes prior to FK506 1 mg/kg i.v.
Procedure: Animals: 8-9 weeks-old Lewis and Brown Norway male rats were obtained from Charles River Laboratories. […] Treatment: Lewis rats were treated with different single doses of LNS 0694i.p. 30 minutes prior to single i.v. injections of tacrolimus at a concentration of 1 mg/kg as described in the table below. Spleens were collected at 4 hr after administration of FK506 for use in the in vitro mixed lymphocyte reaction (MLR) and Con A assays. […] Varying numbers of responder cells were mixed with a constant number of stimulators (105) in 96-well, U-bottom cell culture plates to give a final responder:stimulator (R:S) ratio of 10:1,5: 1, 1:1 and 0.5:1 in 200 μl CM. Control wells for each cell suspension contained 10^5 responders alone in medium and 10^5 pooled, irradiated stimulators alone in medium (separate wells). For a positive proliferative response, each responder (10^5) was treated with 2.5 μg/ml Con A. […] Each well was pulsed with 1 μCi tritiated thymidine for 18±2 hours before automatic harvesting and analysis in a liquid scintillation counter.

[3] = tested on: LEW responder splenocytes with irradiated BN stimulators (lymphocyte proliferation); experiment: Mixed lymphocyte reaction (MLR) with spleen cells of treated Lewis rats; format: cell-based, rat; details: LNS 0694 50, 150, 300 mg/kg i.p. 30 minutes prior to FK506 1 mg/kg i.v.
Procedure: Animals: 8-9 weeks-old Lewis and Brown Norway male rats were obtained from Charles River Laboratories. […] Treatment: Lewis rats were treated with different single doses of LNS 0694i.p. 30 minutes prior to single i.v. injections of tacrolimus at a concentration of 1 mg/kg as described in the table below. Spleens were collected at 4 hr after administration of FK506 for use in the in vitro mixed lymphocyte reaction (MLR) and Con A assays. […] Mixed lymphocyte reactions: A single cell suspension of the spleen of each rat on test (LEW, responder) was prepared with a Dounce homogenizer and wash-medium. The cell suspension was depleted of red blood cells (treatment with NH4CL/Tris buffer) and washed twice with wash medium before resuspending in complete medium (CM; […] A single cell suspension of splenocytes from five Brown Norway rats (BN, stimulators) was prepared with the same method. The BN splenocytes were pooled and irradiated with 1,500-2,000 rad (cesium source) before use. Varying numbers of responder cells were mixed with a constant number of stimulators (105) in 96-well, U-bottom cell culture plates to give a final responder:stimulator (R:S) ratio of 10:1,5: 1, 1:1 and 0.5:1 in 200 μl CM. […] The results of the MLR assays [thymidine incorporation as counts per minute (CPM)] are expressed as mean ±SD.

[4] = tested on: mouse spleen cells, response to Con A; experiment: In vitro Con A assay on spleen cells; format: cell-based
Text: as §1, §2
Results: FIGS. 8 and 9 show the effect of quercetin and tacrolimus on response of mouse spleen cells to Con A at a high (1.6×10^6 cells/well) and low (8×10^5 cells/well) cell concentration, respectively.
Spleen cells were treated with Con A in the presence of vehicle, tacrolimus, quercetin or two different concentrations of tacrolimus (10^−8.2 and 10^−8.5 M) and increasing doses of quercetin at a high cell concentration (FIG. 14) or at a low cell concentration (FIG. 15). […] There was no significance difference between the effect of quercetin on tacrolimus induced cell suppression in vitro at the different concentrations used for quercetin.

[5] = Pharmacokinetics of FK506 i.v. with Quercetin i.p. in rats; format: in vivo, rat
Procedure: as §1, with “weeks-old rats, e.g.,” for “weeks-old”, “rats, can be used.” for “rats were obtained from Charles River Laboratories.”, “are” for “was”
Treatment: Rats are treated as i.v with FK506 and i.p. with Quercetin at two different concentrations, 500 mg/kg or 200 mg/kg. Subsets of 3 Lewis rats per group are used for blood sampling at each time point (Groups 2-5) at described in the table below.
(§3) Plasma Blood Sample Collection: Whole blood is collected from the retro-orbital sinus under 60:40 CO2:O2 anesthesia using EDTA as the anticoagulant. Sample collection is performed at 9 time points: 5, 15, and 30 min and 1, 2, 4, 6, 8, & 24 hr after administration of FK 506. Three samples were collected from each rat per group (Groups 2-5). The first 2 samples are collected under anesthesia, after which the animal regained consciousness and is retained until the next collection interval. The third/last sample is also collected under anesthesia, however the animal is euthanatized prior to anesthetic recovery.
Whole blood samples are placed on dry ice after collection and stored frozen at […] (±10° C.) until analysis.
Drug levels are determined in collected samples using bioanalytical methods developed to detect parent drug levels known in the art.

[6] = in vivo; cited from earlier work
[7] = Pharmacokinetics of FK 506 i.v. with LNS 0694 i.p. in Lewis rats; format: in vivo, rat; details: male Lewis rats; FK 506 1 mg/kg i.v.; LNS 0694 i.p. different doses
Procedure: as §1
Treatment: Lewis rats were treated as described in example 3. Subsets of 3 Lewis rats per group were used for blood sampling at each time point (Groups 2-5) at described in the table below.
as §3, with “blood was” for “blood is”, “collection was” for “collection is”, “samples were” for “samples are”, “and was” for “and is”, “interval. […]” for “interval. The third/last sample is also collected under anesthesia, however the animal is euthanatized prior to anesthetic recovery.”
Drug levels were determined in collected whole blood samples using a bioanalytical method developed to detect parent drug levels.
Results: The pharmacokinetics parameters of FK 506 were determined in male Lewis rats after 1 mg/kg i.v. administration alone or in combination with i.p, administration of different doses of LNS 0694 (See FIG. 16).

[8] = tested on: mdr1a knockout mice; details: cited from earlier work
[9] = higher 200 mg/kg quercetin dose i.p.

effect on calculated AUC (0-infinity) of FK 506 ([5]; Quercetin i.p. different doses, vs control group)	effect on Cmax of FK 506 [5, 9]	effect on Vd of FK 506 [5, 9]	effect on clearance of FK 506 [5, 9]	Compound	effect on response of spleen cells to LPS (proliferation) [1]	effect on FK 506 inhibitory effect, responders activated with Con A [2]	effect on FK 506 inhibitory effect in MLR [3]	effect on tacrolimus induced cell suppression in vitro ([4]; Con A, tacrolimus 10^-8.2 and 10^-8.5 M, increasing doses of quercetin)	effect on response of spleen cells to Con A (proliferation) ([4]; high ([…]10^6 cells/well) and low (8×10^5 cells/well) cell concentration)	effect on peripheral bioavailability of FK506 ([5]; Quercetin i.p. different doses)	serum half-life [6]	effect on peripheral bioavailability of FK506 [7]	incidence of fetal cleft palate [8]
increases	increase	decrease	decrease	O=c1c(O)c(-c2ccc(O)c(O)c2)oc2cc(O)cc(O)c12 [Quercetin, quercetin]	no significant effect	increased FK 506 inhibitory effect	increased FK 506 inhibitory effect in a dose-dependent manner	did not impair	no significant effect	increases the peripheral bioavailability of FK506 in a dose dependent manner	19 to 25 h	increases the peripheral bioavailability of FK506 in a dose dependent manner	
				CC[C@H](C)[C@H]1O[C@]2(C=C[C@@H]1C)C[C@@H]1C[C@@H](C/C=C(\C)[C@@H](O[C@H]3C[C@H](OC)[C@@H](O[C@H]4C[C@H](OC)[C@@H](O)[C@H](C)O4)[C@H](C)O3)[C@@H](C)/C=C/C=C3\CO[C@@H]4[C@H](O)C(C)=C[C@@H](C(=O)O1)[C@]34O)O2 [avermectin]									100%
